Legend:
IOP in the rabbit eye = assay: Intraocular pressure (IOP) pharmacodynamics in normotensive rabbit, tonometer; assay type: in vivo, New Zealand White rabbits; conditions: for IOP decrease, treated eye: within 1 hour
[1] = system: corneal neovascularization; assay: Suture-induced corneal neovascularization model, neovascularization area by image analysis; assay type: in vivo, New Zealand rabbits; conditions: for average neovascularization area lower compared to no treatment group: MN-1bolus: intrastromal 1.1 μg, single microneedle; for reduction of neovascularization compared to untreated eye: SC-high: subconjunctival injection 2500 μg bolus on day 4
Description: All animal studies adhered to the ARVO statement for the Use of Animals in Ophthalmic and Vision Research and were approved by the Georgia Institute of Technology Institutional Animal Care and Use Committee (IACUC). Male and female New Zealand rabbits (2.2-2.5 kg) were anesthetized with ketamine (17 mg/kg), xylazine (8.5 mg/kg) and acepromazine (0.5 mg/kg) subcutaneously. Following topical administration of 0.5% proparacaine hydrochloride to minimize discomfort, a single 7.0-gauge silk suture (Ethicon TG140, Blue Ash, Ohio) was placed at midstromal depth 1 mm away from the limbus of the rabbit cornea to generate corneal neovascularization associated with minor traumatic injury. This silk suture was left in the rabbit cornea for the duration of the experiment to induce neovascularization. For each animal, a suture was placed in one eye and the companion eye was left untreated.
During the experiment, the rabbit eye was imaged using a digital camera (Cannon Rebel Tli, Melvile, N.Y.) with macroscopic lens (Cannon MP-E 65 mm) at 3× magnification every two days after placement of the suture. The area of neovascularization was quantified using Adobe Photoshop (Adobe, Jan Jose, Calif.).
Prior to all treatment procedures except for topical delivery, rabbits were anesthetized with ketamine (6 mg/kg), xylazine (4 mg/kg) and acepromazine (0.25 mg/kg) subcutaneously. A reduced dose of anesthesic compared to the suture insertion procedure was used to reduce possible stress to the animals. A single drop of topical proparacaine ophthalmic solution was given as anesthesia. The duration of each study was 18 days and, after the suture insertion at the beginning of the experiment, 4 days were allowed for neovascularization to develop. All the treatments were done on day 4 except as indicated below.
The high-dose group (SC-high) received 2500 μg of bevacuzumab (in 100 μL, i.e., Avastin). The low-dose group (SC-low) received 4.4 μg of bevacuzumab (Avastin was diluted with HBSS to 100 μL).

rabbit cornea = assay: Safety of intrastromal delivery: corneal surface inspection and histology; assay type: in vivo
Source text: To identify possible microanatomical changes after intrastromal delivery using microneedles, we conducted a histological safety study using four study groups: (i) The untreated group received no suture and no other treatments. (ii) The suture-only group received a suture at day 0, but no other treatments. (iii). The suture with non-coated microneedles group received a suture on day 0 and four non-coated microneedles inserted at the site of the suture on day 4. […] Animals were sacrificed on days 1, 6, 10 and/or 18 for histological analysis. Suture placement and microneedle application were carried out as described above. High magnification images were taken every day in all study groups to assess possible gross corneal damage. Corneal tissues were fixed in 10% formalin and embedded in paraffin. Hematoxylin-eosin (HE) or periodic acid-Schiff (PAS) staining was performed.
The rabbit corneas with and without microneedle treatment and with and without suture placement were evaluated to assess the safety of microneedle insertion by both magnified inspection of the corneal surface in vivo and histological examination of tissue sections obtained at various times after microneedle treatment Immediately after insertion and removal of the microneedle, a small puncture in the corneal epithelium was evident with a size on the order of 200 μm (data not shown). […]

[2] = Intrastromal delivery of bevacizumab from coated microneedles into rabbit cornea in vivo (ELISA)

CS(=O)(=O)NC(=O)CCC/C=C\C[C@H]1C(=O)C[C@@H](O)[C@@H]1/C=C/[C@@H](O)COc1ccccc1 [sulprostone, Sulprostone]
duration of ocular hypotension, treated eye (IOP in the rabbit eye; single topical eye drop 2.5 μg): about 8 hours
maximum IOP decrease, treated eye (IOP in the rabbit eye; single topical eye drop 2.5 μg, at approximately 2 hours): ~3.4 mmHg
ratio of topical to supraciliary dose for similar pharmacodynamic response (AUCPD comparison) (IOP in the rabbit eye; sulprostone, topical 2.5 μg vs supraciliary, Equation (2)): 101
persistence of ocular hypotension, treated eye (IOP in the rabbit eye; supraciliary 0.005 μg in 10 μL): approximately 6 hours
peak IOP drop, treated eye (IOP in the rabbit eye; supraciliary 0.005 μg in 10 μL, at 1 hour): ~2.8 mmHg
persistence of IOP decrease (IOP in the rabbit eye; supraciliary 0.025 μg in 10 μL): at least 9 hours
IOP decrease, treated eye (IOP in the rabbit eye; supraciliary 0.025 μg in 10 μL): ~3.1 mmHg

FC(F)OC(Cl)C(F)(F)F (stereo not shown) [isoflurane]
time for effects on IOP to reverse (IOP in the rabbit eye; after inhalation stopped): 15 to 30 min
IOP elevation (IOP in the rabbit eye; during 15 min inhalation of escalating dose): ~5 mmHg

brimonidine tartrate
supraciliary dose for similar pharmacodynamic response, fold less than topical delivery (AUCPD) (IOP in the rabbit eye; brimonidine, topical 75 μg vs supraciliary): 115 fold
time for IOP to return to normal (IOP in the rabbit eye; single topical drop 75 μg): ≤ 6 h
peak IOP reduction, treated eye (IOP in the rabbit eye; single topical drop 75 μg, at 2 hours): approximately 4 mmHg
IOP changes in treated and contralateral eyes (IOP in the rabbit eye; supraciliary 0.015 μg in 10 μL): no significant IOP changes
persistence of IOP drop (IOP in the rabbit eye; supraciliary 0.75 μg in 10 μL): about 5 hours
peak IOP drop, treated eye (IOP in the rabbit eye; supraciliary 0.75 μg in 10 μL, at 2 hours): ~3 mmHg
persistence of IOP decrease (IOP in the rabbit eye; supraciliary 1.5 μg in 10 μL): about 9 hours
IOP decrease, treated eye (IOP in the rabbit eye; supraciliary 1.5 μg in 10 μL): ~3.3 mmHg

Bevacizumab
average neovascularization area lower compared to no treatment group ([1]; day 4, day 10): 34%
average neovascularization area lower compared to no treatment group ([1]; day 4, day 18): 10%
reduction of neovascularization area ([1]; MN-1bolusx3: intrastromal 1.1 μg on days 4, 6 and 8 (total 3.3 μg), day 10): 50%
reduction of neovascularization area compared to untreated eyes ([1]; MN-4bolus: intrastromal 4.4 μg, four coated microneedles, day 4, day 10): 65%
reduction of neovascularization compared to untreated eyes ([1]; MN-hollow: intrastromal 50 μg (2 μL of 25 μg/μL) by hollow microneedle, day 4, day 10): 74%
reduction of neovascularization compared to untreated eye ([1]; day 10): 62%
reduction of neovascularization compared to untreated eye ([1]; day 18): 29%
effect on neovascularization compared to untreated eyes ([1]; SC-low: subconjunctival injection 4.4 μg bolus on day 4): no significant effect
reduction of neovascularization compared to untreated eyes ([1]; TOP: topical eye drops 3 per day from day 4, total 52,500 μg, day 18): 6%
corneal histology, sutured eyes with versus without microneedle treatment (rabbit cornea; 1.1 μg bevacizumab by microneedle four days after suture): no notable differences
corneal surface after treatment with bevacizumab-coated microneedles (rabbit cornea; magnified inspection in vivo, daily over 18 days): only a microscopic puncture in the corneal epithelium that disappeared within one day and was not associated with any complications
coated bevacizumab delivered into the cornea ([2]; coated microneedles, 10 dip coats, inserted 60 sec, rabbit cornea in vivo): 52%
amount of bevacizumab delivered per microneedle ([2]; microneedles coated with 20 dips): 1.14 ± 0.11 µg

CC(C)OC(=O)CCC/C=C\C[C@@H]1[C@@H](CC[C@@H](O)CCc2ccccc2)[C@H](O)C[C@@H]1O [latanoprost]
change in IOP (IOP in the rabbit eye; standard human dose of 2.5 μg, rabbit model): no change in IOP was observed

— patent US20160310417A1, “Formulations and Methods For Targeted Ocular Delivery of Therapeutic Agents” (Emory University, priority 2013, published 2016)
